Results: ChEMBL document CHEMBL1201862, “PubChem BioAssay data set” (2004)
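Grown in 96-well plates, cells were treated for 48 hours with each compound at five concentrations. Insufficient inhibition: endpoint recorded as highest concentration tested. Here, GI50 denotes the concentration required for 50% inhibition of growth.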 Active and inactive are the calls of the source. Cut-off read from the data, not from the text of the source: active = GI50 up to about 1.1 µM and inactive = higher.

What was measured:
Test in all cases: NCI anticancer screen, dose series, 48 h
SNB-19 = tested on: SNB-19
NCI-H23 = tested on: NCI-H23
HOP-62 = tested on: HOP-62
UACC-62 = tested on: UACC-62
CCRF-CEM = tested on: CCRF-CEM
SNB-75 = tested on: SNB-75
NCI-H522 = tested on: NCI-H522
SK-MEL-2 = tested on: SK-MEL-2
OVCAR-4 = tested on: OVCAR-4
LXFL 529 = tested on: LXFL 529
SK-OV-3 = tested on: SK-OV-3
KM-20L2 = tested on: KM-20L2
SF-268 = tested on: SF-268
Malme-3M = tested on: Malme-3M
SK-MEL-28 = tested on: SK-MEL-28
RPMI-8226 = tested on: RPMI-8226
HCC 2998 = tested on: HCC 2998
PC-3 = tested on: PC-3
MOLT-4 = tested on: MOLT-4
K562 = tested on: K562
DMS-273 = tested on: DMS-273
DU-145 = tested on: DU-145
XF498 = tested on: XF498
SN12C = tested on: SN12C
M14 = tested on: M14
DMS-114 = tested on: DMS-114
OVCAR-8 = tested on: OVCAR-8
OVCAR-3 = tested on: OVCAR-3
ACHN = tested on: ACHN
A498 = tested on: A498
HT-29 = tested on: HT-29
KM12 = tested on: KM12
U-251 = tested on: U-251
SK-MEL-5 = tested on: SK-MEL-5
HOP-18 = tested on: HOP-18
IGROV-1 = tested on: IGROV-1
HCT-116 = tested on: HCT-116
SF-295 = tested on: SF-295
BT-549 = tested on: BT-549
Hs-578T = tested on: Hs-578T
RXF 393 = tested on: RXF 393
HOP-92 = tested on: HOP-92
TK-10 = tested on: TK-10
UO-31 = tested on: UO-31
M19-MEL = tested on: M19-MEL
786-0 = tested on: 786-0
MDA-N = tested on: MDA-N
UACC-257 = tested on: UACC-257
SR = tested on: SR
NCI-H226 = tested on: NCI-H226
LOX IMVI = tested on: LOX IMVI
SW-620 = tested on: SW-620
CAKI-1 = tested on: CAKI-1
SF-539 = tested on: SF-539
HCT-15 = tested on: HCT-15
RXF 631 = tested on: RXF 631
T47D = tested on: T47D
HL-60 = tested on: HL-60
DLD-1 = tested on: DLD-1
MCF7 = tested on: MCF7
SNB-78 = tested on: SNB-78
NCI-H460 = tested on: NCI-H460
EKVX = tested on: EKVX
A549 = tested on: A549
COLO 205 = tested on: COLO 205
OVCAR-5 = tested on: OVCAR-5
MDA-MB-231 = tested on: MDA-MB-231

Cc1c2ccncc2cc2c1sc1ccncc12
GI50 (SNB-19): 2.74 µM (inactive) | GI50 (NCI-H23): 2.51 µM (inactive) | GI50 (HOP-62): 1.74 µM (inactive) | GI50 (UACC-62): 2.16 µM (inactive) | GI50 (CCRF-CEM): 1.21 µM (inactive) | GI50 (SNB-75): 3.8 µM (inactive) | GI50 (NCI-H522): 2.14 µM (inactive) | GI50 (SK-MEL-2): 6.17 µM (inactive) | GI50 (OVCAR-4): 5.71 µM (inactive) | GI50 (LXFL 529): 6.68 µM (inactive) | GI50 (SK-OV-3): 2.23 µM (inactive) | GI50 (KM-20L2): 5.5 µM (inactive) | GI50 (SF-268): 3.66 µM (inactive) | GI50 (Malme-3M): 4.16 µM (inactive) | GI50 (SK-MEL-28): 5.82 µM (inactive) | GI50 (RPMI-8226): 0.993 µM (active) | GI50 (HCC 2998): 5.52 µM (inactive) | GI50 (PC-3): 1.86 µM (inactive) | GI50 (MOLT-4): 0.468 µM (active) | GI50 (K562): 4.14 µM (inactive) | GI50 (DMS-273): 2.09 µM (inactive) | GI50 (DU-145): 1.97 µM (inactive) | GI50 (XF498): 12.1 µM (inactive) | GI50 (SN12C): 2 µM (inactive) | GI50 (M14): 4.53 µM (inactive) | GI50 (DMS-114): 6.21 µM (inactive) | GI50 (OVCAR-8): 2.61 µM (inactive) | GI50 (OVCAR-3): 6.56 µM (inactive) | GI50 (ACHN): 1.06 µM (active) | GI50 (A498): 4.31 µM (inactive) | GI50 (HT-29): 2.73 µM (inactive) | GI50 (KM12): 3.55 µM (inactive) | GI50 (U-251): 2.22 µM (inactive) | GI50 (SK-MEL-5): 1.68 µM (inactive) | GI50 (HOP-18): 7.71 µM (inactive) | GI50 (IGROV-1): 3.47 µM (inactive) | GI50 (HCT-116): 1.75 µM (inactive) | GI50 (SF-295): 1.96 µM (inactive) | GI50 (BT-549): 2.49 µM (inactive) | GI50 (Hs-578T): 2.39 µM (inactive) | GI50 (RXF 393): 5.24 µM (inactive) | GI50 (HOP-92): 8.22 µM (inactive) | GI50 (TK-10): 7.29 µM (inactive) | GI50 (UO-31): 1.27 µM (inactive) | GI50 (M19-MEL): 3.94 µM (inactive) | GI50 (786-0): 2.06 µM (inactive) | GI50 (MDA-N): 2.67 µM (inactive) | GI50 (UACC-257): 3.85 µM (inactive) | GI50 (SR): 0.325 µM (active) | GI50 (NCI-H226): 0.684 µM (active) | GI50 (LOX IMVI): 1.57 µM (inactive) | GI50 (SW-620): 1.45 µM (inactive) | GI50 (CAKI-1): 2.01 µM (inactive) | GI50 (SF-539): 4.56 µM (inactive) | GI50 (HCT-15): 1.9 µM | GI50 (RXF 631): 2.25 µM (inactive) | GI50 (T47D): 2.04 µM (inactive) | GI50 (HL-60): 0.877 µM (active) | GI50 (DLD-1): 4.18 µM (inactive) | GI50 (MCF7): 0.41 µM (active) | GI50 (SNB-78): 13 µM (inactive) | GI50 (NCI-H460): 0.485 µM (active) | GI50 (EKVX): 3.17 µM (inactive) | GI50 (A549): 0.845 µM (active) | GI50 (COLO 205): 3.24 µM (inactive) | GI50 (OVCAR-5): 3.18 µM (inactive) | GI50 (MDA-MB-231): 3.57 µM (inactive)

CC(=O)OCC1OC(OC2CC3C(C)(C)C(OC(C)=O)CC[C@]3(C)C3CCC45CC4(CC[C@H]5C(C)CC(O)C4OC4(C)C)[C@]23C)C(O)C(O)C1O (stereo partly specified)
GI50 (SNB-19): 4.06 µM (inactive) | GI50 (NCI-H23): 2.86 µM (inactive) | GI50 (HOP-62): 5.56 µM (inactive) | GI50 (UACC-62): 1.99 µM (inactive) | GI50 (CCRF-CEM): 1.04 µM (active) | GI50 (SNB-75): 2.27 µM (inactive) | GI50 (NCI-H522): 1.59 µM (inactive) | GI50 (SK-MEL-2): 1.84 µM (inactive) | GI50 (OVCAR-4): 1.48 µM (inactive) | GI50 (LXFL 529): 3.11 µM (inactive) | GI50 (SK-OV-3): 2.3 µM (inactive) | GI50 (KM-20L2): 1.85 µM (inactive) | GI50 (SF-268): 2.44 µM (inactive) | GI50 (Malme-3M): 7.98 µM (inactive) | GI50 (SK-MEL-28): 2.03 µM (inactive) | GI50 (RPMI-8226): 1.95 µM (inactive) | GI50 (HCC 2998): 1.37 µM (inactive) | GI50 (MOLT-4): 0.189 µM (active) | GI50 (K562): 1.13 µM (inactive) | GI50 (DMS-273): 1.99 µM (inactive) | GI50 (XF498): 1.53 µM (inactive) | GI50 (SN12C): 2.29 µM (inactive) | GI50 (M14): 2.03 µM (inactive) | GI50 (DMS-114): 1.58 µM (inactive) | GI50 (OVCAR-8): 2.2 µM (inactive) | GI50 (OVCAR-3): 2.58 µM (inactive) | GI50 (ACHN): 2.21 µM (inactive) | GI50 (A498): 4.72 µM (inactive) | GI50 (HT-29): 0.92 µM (active) | GI50 (KM12): 1.35 µM (inactive) | GI50 (U-251): 1.82 µM (inactive) | GI50 (SK-MEL-5): 2.69 µM (inactive) | GI50 (HOP-18): 2.2 µM (inactive) | GI50 (IGROV-1): 0.0715 µM (active) | GI50 (HCT-116): 1.34 µM (inactive) | GI50 (SF-295): 1.69 µM (inactive) | GI50 (RXF 393): 1.55 µM (inactive) | GI50 (HOP-92): 2.25 µM (inactive) | GI50 (TK-10): 3.35 µM (inactive) | GI50 (UO-31): 3.68 µM (inactive) | GI50 (M19-MEL): 1.93 µM (inactive) | GI50 (786-0): 2.7 µM (inactive) | GI50 (UACC-257): 1.98 µM (inactive) | GI50 (SR): 2.65 µM (inactive) | GI50 (NCI-H226): 5.06 µM (inactive) | GI50 (LOX IMVI): 1.63 µM (inactive) | GI50 (SW-620): 2.43 µM (inactive) | GI50 (CAKI-1): 4.32 µM (inactive) | GI50 (SF-539): 3.89 µM (inactive) | GI50 (HCT-15): 1.55 µM | GI50 (RXF 631): 2.32 µM (inactive) | GI50 (HL-60): 1.18 µM (inactive) | GI50 (DLD-1): 1.79 µM (inactive) | GI50 (SNB-78): 5.71 µM (inactive) | GI50 (NCI-H460): 1.79 µM (inactive) | GI50 (EKVX): 3.11 µM (inactive) | GI50 (A549): 2.09 µM (inactive) | GI50 (COLO 205): 1.01 µM (active) | GI50 (OVCAR-5): 1.03 µM (active)
